What all share (assay type): biochemical
In assay [1] the target is T1, hENPP2 (UniProtKB/SwissProt Sequence ref Q13822) (Homo sapiens (Human), UniProt Q13822). Description: FS3 hENPP2 assay (fluorogenic substrate FS-3). The following applies: hENPP2, FS-3 as substrate. The gist of the method: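 Compound dilutions (1/5 steps, top concentration as added 20 μM) were preincubated 30 min at room temperature with hENPP2 (0.4 or 0.64 μg/mL final) in pH 8.0 Tris buffer containing NaCl, KCl, MgCl2, CaCl2 and 0.1% fatty-acid-free BSA. FS-3 (0.75 μM as added) was then hydrolysed for 30 min at 30 °C, and fluorescence was read at 485/520 nm.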

Assay [2] deals with LPA 18:2. Description: Rat whole blood (plasma) LPA assay. Here is the method:
Whole blood is collected from rats or mouse by exsanguinations on sodium heparin tube, then after centrifugation at 3000 rpm for 15 min at 4° C., plasma is stored at −80° C. Compounds are diluted in DMSO in concentration dependent manner then 0.5 μL are dispensed into 96-wells plate placed in ice. Plasma is defrosted on ice then 49.5 μL of plasma are added into the well containing 0.5 μL of compound (1% DMSO final). Plates are covered with a lid in polypropylene and incubated at +37° C., 5% CO2, for 2 h under gentle shaking (except controls which are stored at −20° C.).
At the end of the incubation, controls are defrosted in ice and transferred in the incubated plates for LC-MS/MS analysis with a non GLP-validated method. For the analysis, plasma proteins from a 10 μL incubated plates are precipitated with an excess of methanol containing the internal standard, LPA 17:0. After centrifugation, the corresponding supernatant is injected on a C18 column. Analytes are eluted out of the column under isocratic conditions. An API5500 QTRAP mass spectrometer (ABSciex™) is used for the detection of LPA 18:2. No calibration curve is prepared for LPA 18:2, however relative quantities are evaluated based on the peak area.

For assay [3], the target named is T1, hENPP2. Description: LPC hENPP2 assay (choline release, LPC as substrate). The gist of the method:
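Detection is coupled: choline oxidase produces peroxide, which HRP uses to form quinoneimine dye from TOOS and 4-aminoantipyrine, read at 555 nm. The reaction is stopped with 20 mM EGTA in the developer mix, then incubated 30 min at room temperature; inhibition lowers signal.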

With `CCc1nc2cnc(N3CCN(CC(=O)N4CC(O)C4)CC3)cn2c1N(C)c1nc(-c2ccc(F)cc2C#N)cs1` [Cpd 16, 2-(2-((2-ethyl-6-(4-(2-(3-hydroxyazetidin-1-yl)-2-oxoethyl)piperazin-1-yl)imidazo[1,2-a]pyrazin-3-yl)(methyl)amino)thiazol-4-yl)-5-fluorobenzonitrile], the figures for the IC50 in assay [1], in assay [2] and in assay [3] were 50 to 100 nM, above 1000 nM and above 1000 nM, respectively.

Turning to `CCc1nc2ccc(C3CCN(CC(=O)N4CC(O)C4)CC3)nn2c1N(C)c1ccnc(-c2ccc(F)cc2)n1` [Cpd 216, 2-(4-(2-ethyl-3-((2-(4-fluorophenyl)pyrimidin-4-yl)(methyl)amino)imidazo[1,2-b]pyridazin-6-yl)piperidin-1-yl)-1-(3-hydroxyazetidin-1-yl)ethanone], the IC50 is 0.01 to 25 nM in assay [1], above 1000 nM in assay [2] and 500 to 1000 nM in assay [3].

With `CCc1nc2ccc(N3CCC(N4CCOCC4)C3)nn2c1N(C)c1nc(-c2ccc(F)cc2)c(C#N)s1` (stereo not shown) [Cpd 149, 2-((2-ethyl-6-(3-morpholino-pvrrolidin-1-yl)imidazo[1,2-b]pyridazin-3-yl)(methyl)amino)-4-(4-fluorophenyl) thiazole-5-carbonitrile], the 50% inhibitory concentration (IC50) in assay [2] and in assay [3] was 0.01 to 100 nM in each case.

For the molecule `CCc1nc2ccc(C3CCN(CC(=O)N4CC(O)C4)CC3)nn2c1N(C)c1cccc(-c2ccc(F)cc2C#N)n1` [Cpd 213, 2-(6-((2-ethyl-6-(1-(2-(3-hydroxyazetidin-1-yl)-2-oxoethyl)piperidin-4-yl)imidazo[1,2-b]pyridazin-3-yl)(methyl)amino)pyridin-2-yl)-5-fluorobenzonitrile], the concentration for half-maximal inhibition (IC50) in assay [1] is 0.01 to 25 nM; in assay [2], 100 to 500 nM; in assay [3], 0.01 to 100 nM.

For the molecule `CCc1nc2ccc(C3CCN(CC(=O)N4CC(O)C4)CC3)nn2c1N(C)c1ccc(C#N)c(-c2ccc(F)cc2)n1` [Cpd 218, 6-((2-ethyl-6-(1-(2-(3-hydroxyazetidin-1-yl)-2-oxoethyl)piperidin-4-yl)imidazo[1,2-b]pyridazin-3-yl)(methyl)amino)-2-(4-fluorophenyl) nicotinonitrile], the half-maximal inhibitory concentration (IC50) in assay [1] fell in the range of 0.01 to 25 nM; in assay [2], 100 to 500 nM; in assay [3], 100 to 500 nM.

For `CCc1nc2cnc(N3CCN(CC(=O)N4CC(O)C4)CC3)cn2c1N(C)c1nc(-c2ccc(F)cc2)cs1` [Cpd 14, 2-(4-(2-ethyl-3-((4-(4-fluorophenyl)thiazol-2-yl)(methyl)amino)imidazo[1,2-a]pyrazin-6-yl)piperazin-1-yl)-1-(3-hydroxyazetidin-1-yl)ethanone], the IC50 in assay [2] and in assay [3] was above 1000 nM throughout.

As to `CCc1nc2cnc(C3CCN(CC(=O)N4CC(O)C4)CC3)cn2c1N(C)c1nc(-c2ccc(F)cc2)c(C#N)s1` [Cpd 23, 2-((2-ethyl-6-(1-(2-(3-hydroxyazetidin-1-yl)-2-oxoethyl)piperidin-4-yl)imidazo[1,2-a]pyrazin-3-yl)(methyl)amino)-4-(4-fluorophenyl) thiazole-5-carbonitrile], the results for the IC50 in assay [1], in assay [2] and in assay [3] were 0.01 to 25 nM, 100 to 500 nM and 100 to 500 nM, respectively.

Regarding `CCc1nc2cnc(C3CCN(CC(=O)N4CC[C@@H](O)C4)CC3)cn2c1N(C)c1nc(-c2ccc(F)cc2)c(C#N)s1` [Cpd 24, (R)-2-((2-ethyl-6-(1-(2-(3-hydroxypyrrolidin-1-yl)-2-oxoethyl)piperidin-4-yl)imidazo[1,2-a]pyrazin-3-yl)(methyl)amino)-4-(4-fluorophenyl) thiazole-5-carbonitrile], the IC50 fell in the range of 0.01 to 25 nM in assay [1], 0.01 to 100 nM in assay [2] and 100 to 500 nM in assay [3].

In the case of `CCc1nc2ccc(N3CCN(S(=O)(=O)CCCN(C)C)[C@H](CO)C3)nn2c1N(C)c1nc(-c2ccc(F)cc2)cs1` [Cpd 63, (S)-(1-(3-(dimethylamino)propylsulfonyl)-4-(2-ethyl-3-((4-(4-fluorophenyl)thiazol-2-yl)(methyl)amino)imidazo[1,2-b]pyridazin-6-yl)piperazin-2-yl)methanol], the IC50 in assay [1] is 0.01 to 25 nM; in assay [2], 0.01 to 100 nM; in assay [3], 0.01 to 100 nM.

As to `CCc1nc2ccc(C3CCN(S(C)(=O)=O)CC3)nn2c1N(C)c1nc(-c2ccc(F)cc2C#N)cs1` [Cpd 205, 2-(2-((2-ethyl-6-(1-(methylsulfonyl)piperidin-4-yl)imidazo[1,2-b]pyridazin-3-yl)(methyl)amino)thiazol-4-yl)-5-fluorobenzonitrile], the IC50 in assay [2] and in assay [3] was 100 to 500 nM each time.

For the molecule `CCc1nc2ccc(C3CCN(S(C)(=O)=O)CC3)nn2c1N(C)c1nc(-c2ccc(F)cc2C#N)c(CO)s1` [Cpd 206, 2-(2-((2-ethyl-6-(1-(methylsulfonyl)piperidin-4-yl)imidazo[1,2-b]pyridazin-3-yl)(methyl)amino)-5-(hydroxymethyl)thiazol-4-yl)-5-fluorobenzonitrile], the results for the IC50 in assay [2] and in assay [3] were 100 to 500 nM and 500 to 1000 nM, respectively.

In the case of `CCc1nc2cnc(N3CCN(CC(=O)N(C)C)CC3)cn2c1N(C)c1nc(-c2ccc(F)cc2)c(C#N)s1` [Cpd 5, 2-(4-(3-((5-cyano-4-(4-fluorophenyl)thiazol-2-yl)(methyl)amino)-2-ethylimidazo[1,2-a]pyrazin-6-yl)piperazin-1-yl)-N,N-dimethylacetamide], the half-maximal inhibitory concentration (IC50) in assay [1] was 0.01 to 25 nM; in assay [2] it was above 1000 nM; in assay [3], 100 to 500 nM.

As for `CCc1nc2cnc(N3CCN(CC(=O)N4CC[C@@H](O)C4)CC3)cn2c1N(C)c1nc(-c2ccc(F)cc2)c(C#N)s1` [Cpd 6, (R)-2-((2-ethyl-6-(4-(2-(3-hydroxypyrrolidin-1-yl)-2-oxoethyl)piperazin-1-yl)imidazo[1,2-a]pyrazin-3-yl)(methyl)amino)-4-(4-fluorophenyl) thiazole-5-carbonitrile], the IC50 in assay [1] fell in the range of 0.01 to 25 nM; in assay [2], 100 to 500 nM; in assay [3], 100 to 500 nM.

Turning to `CCc1nc2cnc(N3CCN(CC(=O)N4CC(O)C4)CC3)cn2c1N(C)c1ncc(C#N)c(-c2ccc(F)cc2)n1` [Cpd 19, 2-((2-ethyl-6-(4-(2-(3-hydroxyazetidin-1-yl)-2-oxoethyl)piperazin-1-yl)imidazo[1,2-a]pyrazin-3-yl)(methyl)amino)-4-(4-fluorophenyl) pyrimidine-5-carbonitrile], the IC50 in assay [1] is above 100 nM; in assay [2], above 1000 nM; in assay [3], above 1000 nM.

As for `CCc1nc2ccc(N3CCC4(CNC(=O)O4)C3)nn2c1N(C)c1nc(-c2ccc(F)cc2)cs1` (stereo not shown) [Cpd 118, 7-(2-ethyl-3-((4-(4-fluorophenyl)thiazol-2-yl)(methyl)amino)imidazo[1,2-b]pyridazin-6-yl)-1-oxa-3,7-diazaspiro[4.4] nonan-2-one], the concentration for half-maximal inhibition (IC50) in assay [2] is above 1000 nM; in assay [3], 500 to 1000 nM.

As for `CCc1nc2ccc(C3CCN(CC(=O)N(C)C)CC3)nn2c1N(C)c1nc(-c2ccc(F)cc2)cs1` [Cpd 202, 2-(4-(2-ethyl-3-((4-(4-fluorophenyl)thiazol-2-yl)(methyl)amino)imidazo[1,2-b]pyridazin-6-yl)piperidin-1-yl)-N,N-dimethylacetamide], the IC50 in assay [1] was in the range of 0.01 to 25 nM; in assay [3], 500 to 1000 nM.

Consider `CCc1nc2ccc(N3CCC(C(=O)NCCO)CC3)nn2c1N(C)c1nc(-c2ccc(F)cc2)cs1` [Compound 97, 1-(2-ethyl-3-((4-(4-fluorophenyl)thiazol-2-yl)(methyl)amino)imidazo[1,2-b]pyridazin-6-yl)-N-(2-hydroxyethyl)piperidine-4-carboxamide], for which the IC50 in assay [1] lay in the range of 0.01 to 25 nM; in assay [3] it was 500 to 1000 nM.

On to `CCc1nc2ccc(N3CCN(CC(=O)N4CC(O)C4)CC3)nn2c1N(C)c1nc(-c2ccc(F)cc2)cs1` [Cpd 26], for which the concentration for half-maximal inhibition (IC50) in assay [1] lay within 0.01 to 25 nM; in assay [3] it was 100 to 500 nM.

Take `CN(c1nc(-c2ccc(F)cc2)cs1)c1c(CCCO)nc2ccc(C3CCN(S(C)(=O)=O)CC3)nn12` [Compound 200, 3-(3-((4-(4-fluorophenyl)thiazol-2-yl)(methyl)amino)-6-(1-(methylsulfonyl)piperidin-4-yl)imidazo[1,2-b]pyridazin-2-yl)propan-1-ol]: the IC50 is 0.01 to 25 nM in assay [1] and above 1000 nM in assay [3].

On to `CCc1nc2ccc(N3CCCC(C(N)=O)C3)nn2c1N(C)c1nc(-c2ccc(F)cc2)cs1` (stereo not shown) [Cpd 99, 1-(2-ethyl-3-((4-(4-fluorophenyl)thiazol-2-yl)(methyl)amino)imidazo[1,2-b]pyridazin-6-yl)piperidine-3-carboxamide], for which the concentration for half-maximal inhibition (IC50) in assay [1] is 0.01 to 25 nM; in assay [3], above 1000 nM.

On to `CCc1nc2ccc(N3CCCN(S(C)(=O)=O)CC3)nn2c1N(C)c1nc(-c2ccc(F)cc2)cs1` [Cpd 116, N-(2-ethyl-6-(4-(methylsulfonyl)-1,4-diazepan-1-yl)imidazo[1,2-b]pyridazin-3-yl)-4-(4-fluorophenyl)-N-methylthiazol-2-amine], for which the IC50 in assay [1] is 0.01 to 25 nM; in assay [3], above 1000 nM.

A word on the IC50: it is the concentration that gives 50% inhibition. Low readings indicate greater potency in that assay, high ones weaker potency in that assay.

The values above are taken from patent US9796719B2, “Compounds and pharmaceutical compositions thereof for the treatment of inflammatory disorders” (GALAPAGOS NV, priority 2013, dated 2017).
